The structures appear in SMILES notation.

Sequence of FAK kinase (catalytic construct FAK(410-689)) (Q05397 410-689): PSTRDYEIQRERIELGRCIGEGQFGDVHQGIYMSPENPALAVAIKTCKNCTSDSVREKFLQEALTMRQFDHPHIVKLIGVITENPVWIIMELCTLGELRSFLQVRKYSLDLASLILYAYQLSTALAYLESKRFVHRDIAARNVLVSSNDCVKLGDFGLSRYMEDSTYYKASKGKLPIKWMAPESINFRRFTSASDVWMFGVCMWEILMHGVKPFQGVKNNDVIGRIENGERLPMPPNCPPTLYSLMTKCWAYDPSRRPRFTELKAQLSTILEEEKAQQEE

This assay deals with FAK kinase (catalytic construct FAK(410-689)) (Homo sapiens (Human), UniProt Q05397). Kind of assay: FAKcd kinase ELISA (inhibition of poly-glu-tyr phosphorylation by FAK(410-689)). In kind it is biochemical. The note with it: 50 μM final ATP. Here is the method:
A. In-Vitro Activity of FAK:
The assay protocol has three parts:
3. […] 4. […] 5. […] 6. […] 7. […] 9. […] 10. […] 12. […] 13. […] 14. Aliquot the FAKcd protein and store frozen at −80° C. II. FAK Activation 1. […] At t120 (t=120 minutes), add 10 μl of 150 mM ATP. […] Add 180 μl aliquots of the desalted material to NiNTA spin column and incubate on spin column 4. […] FAKcd Kinase ELISA 1. Coat 96-well Nunc MaxiSorp plates with poly-glu-tyr (pGT) at […]: Prepare 10 μg/ml of pGT in PBS and aliquot 100 μl/well. Incubate the plates at 37° C. overnight, aspirate the supernatant, wash the plates 3 times with Wash Buffer, and flick to dry before storing at 4° C. 2. Prepare compound stock solutions of 2.5 mM in 100% DMSO. The stocks are subsequently diluted to 60× of the final concentration in 100% DMSO, and diluted 1:5 in Kinase Phosphorylation Buffer. 3. […] Add 80 μl to each well for a final ATP concentration of 50 μM. 4. […] 5. Dilute on ice, FAKcd protein to 1:1000 in Kinase Phosphorylation Buffer. Dispense 30 μl per well. 6. Note: Linearity and the appropriate dilution must be pre-determined for each batch of protein. The enzyme concentration selected should be such that quantitation of the assay signal will be approximately 0.8-1.0 at OD450, and in the linear range of the reaction rate. 7. Prepare both a No ATP control (noise) and a No Compound Control (Signal): 8. (Noise) One blank row of wells receives 10 μl of 1:5 diluted compounds in DMSO, 80 μl of Phosphorylation buffer (minus ATP), and 30 μl FAKcd solution. 9. […] 10. Incubate reaction at room temperature for 15 minutes with gentle shaking on a plate shaker. 11. Terminate the reaction by aspirating off the reaction mixture and washing 3 times with wash buffer. 12. Dilute phospho-tyrosine HRP-conjugated (pY20HRP) antibody to 0.250 μg/ml (1:1000 of Stock) in blocking buffer. Dispense 100 μl per well, and incubate with shaking for 30 minutes at 25°. 13. Aspirate the supernatant and wash the plate 3 times with wash buffer. 14. Add 100 μl per well of room temperature TMB solution to initiate color development. Color development is terminated after approximately 15-30 sec. by the addition of 100 μl of 0.09M H2SO4 per well. 15. The signal is quantitated by measurement of absorbance at 450 nm on the BioRad ricroplate reader or a microplate reader capable of reading at OD450. 16. Inhibition of tyrosine kinase activity would result in a reduced absorbance signal. […] The values are reported as IC50s, μM concentration. FAK Inducible cell-based ELISA: Final Protocol Materials: […]
In general, IC50 refers to the point on the concentration scale where inhibition reaches its midpoint. A lower IC50 goes with greater potency. As to `Cc1cc(C(N)=O)ccc1Nc1ncc(C(F)(F)F)c(NCc2ncccc2N(C)S(C)(=O)=O)n1` [Compound 343, 3-methyl-4-({4-[({3-[methyl(methylsulfonyl)amino]pyridin-2-yl}methyl)amino]-5-(trifluoromethyl)pyrimidin-2-yl}amino)benzamide], 0.993 nM corresponded to half-maximal inhibition (IC50).

`CN(c1ncccc1CNc1nc(Nc2cccc(CS(N)(=O)=O)c2)ncc1C(F)(F)F)S(C)(=O)=O` [Compound 31, N-[3-({[2-({3-[(aminosulfonyl)methyl]phenyl}amino)-5-(trifluoronnethyl)pyrimidin-4-yl]amino}methyl)pyridin-2-yl]-N-methylmethane-sulfonatnide] had an IC50 of 2.22 nM.

`CCCC1(NC(=O)c2cccc(Nc3ncc(C(F)(F)F)c(NCc4cccnc4N(C)S(C)(=O)=O)n3)c2)CC1` [Compound 209, 3-({4-[({2-[methyl(methylsulfonyl)amino]pyridin-3-yl}methyl)amino]-5-(trifluoromethyl)pyrimidin-2-yl}amino)-N-(1-propylcyclopropyl)benzamide] came in with an IC50 of 3.68 nM.

`CN(c1cccnc1CNc1nc(Nc2cccc(C(N)=O)c2)ncc1C(F)(F)F)S(C)(=O)=O` [Compound 295, 3-({4-[({3-[methyl(methylsulfonyl)amino]pyridin-2-yl}methyl)amino]-5-(trifluoromethyl)pyrimidin-2-yl}amino)benzamide]: half-maximal inhibition (IC50) required 1.33 nM.

`CN(c1ncccc1CNc1nc(Nc2ccc(C(F)(F)F)nc2)ncc1C(F)(F)F)S(C)(=O)=O` [Compound 81, N-methyl-N-[3-({[5-(trifluoromethyl)-2-{[6-(trifluoromethyl)pyridin-3-yl]amino}pyrimidin-4-yl]amino}methyl)pyridin-2-yl]methanesulfonamide] came in with an IC50 of 15.8 nM.

In the case of `CN(C)CCN(C)C(=O)c1cccc(Nc2ncc(C(F)(F)F)c(NCc3cccnc3N(C)S(C)(=O)=O)n2)c1` [Compound 137, N-[2-(dimethylamino)ethyl]-N-methyl-3-({4-[({2-[methyl(methylsulfonyl)amino]pyridin-3-yl}methyl)amino)-5-(trifluoromethyl)pyrimidin-2-yl}amino)benzamide], the IC50 was 4.33 nM.

Turning to `COC(=O)c1ccc(Nc2ncc(C(F)(F)F)c(NCc3cccc(N(C(F)F)S(C)(=O)=O)c3)n2)cc1` [Compound 321, 4-{[4-({3-[(difluoromethyl)(methyl-sulfonyl)amino]benzyl}amino)-5-(trifluoromethyl)pyrimidin-2-yl]amino}benzoate], the IC50 worked out at 119 nM.

For the compound `Cc1ccc(CNc2nc(Nc3ccccc3)ncc2C(F)(F)F)c(NS(C)(=O)=O)c1` [Compound 62, N-[2-({[2-anilino-5-(trifluoromethyl)pyrimidin-4-yl]amino}methyl)-5-methylphenyl]methanesulfonamide], the IC50 is 10.3 nM.

On to `Cc1cc(Nc2ncc(C(F)(F)F)c(NCc3cccnc3N(C)S(C)(=O)=O)n2)on1` [Compound 289, N-methyl-N-{3-[({2-[(3-methylisoxazol-5-yl)amino)-5-(trifluoromethyl)pyrimidin-4-yl}amino)methyl]pyridin-2-yl}methanesulfonamide], for which 18.2 nM corresponded to half-maximal inhibition (IC50).

Compound `CN(c1ncccc1CNc1nc(Nc2cccc(CO)c2)ncc1C(F)(F)F)S(C)(=O)=O` [Compound 283, N-[3-({[2-{[3-(hydroxymethyl)phenyl]amino}-5-(trifluoromethyl)pyrimidin-4-yl]amino}methyl)pyridin-2-yl)-N-methylmethane-sulfonamide] registered an IC50 of 0.6 nM.

In turn, `CC(=O)NCC(=O)Nc1cccc(Nc2ncc(C(F)(F)F)c(NCc3ncccc3N(C)S(C)(=O)=O)n2)c1` [Compound 398, N~2~-acetyl-N-[3-({4-[({3-[methyl(methylsulfonyl)amino]pyridin-2-yl}methyl)amino]-5-(trifluoromethyl)pyrimidin-2-yl}amino)phenyl]glycinamide] gave an IC50 of 2.18 nM.

For the origin of these results see patent US10450297B2, “Sulfonyl amide derivatives for the treatment of abnormal cell growth” (Pfizer, Inc., priority 2007, dated 2019).
